“Also recorded” adds a separate entry of the source.
Tests used:
PDI = PDI (Homo sapiens, UniProt P07237); assay: PDI activity assay; assay type: biochemical
Text: FIG. 17(A-F) is an exemplary embodiment of identification of novel ERO1α inhibitors by high throughput screening in accordance with the present disclosure. FIG. 17A: A scheme of an ERO1α activity assay. FIG. 17B: Screening of chemical libraries in the ERO1α activity assay. FIG. 17C: The inhibitory effect of selected compounds on ERO1α activity. FIG. 17D: The inhibitory effect of selected compounds on PDI activity. FIG. 17E: The inhibitory effect of selected compounds on H2O2 activity. FIG. 17F: The inhibitory effect of selected compounds on thiol-reacting activity. The data represent the mean±SD (n=3). *P<0.05, **P<0.01, ***P<0.001, and ****P<0.0001 vs. vehicle control, Student's t-test.
To identify a novel ERO1α inhibitor, 5800 compounds were screened using an ERO1α activity assay (FIG. 17A and FIG. 17B). […] The selected compounds were further tested in assays measuring PDI, antioxidant, and thiol-reacting activities (FIG. 17D through FIG. 17F). […] B12 inhibited P-selectin exposure and αIIbβ3 activation in agonist-activated mouse and human platelets in a concentration-dependent manner (FIG. 18B through FIG. 18E).

WT (C57BL/6) mice = assay: Intravital microscopy, laser-induced cremaster arteriolar injury, WT mice; assay type: in vivo, mouse; conditions: iv 5 μg/g BW
Experimental: Intravital microscopy was performed in a mouse model of laser-induced cremaster arteriolar injury as previously described. WT (C57BL/6), littermate WT control, and CKO and KO male mice (8-10 weeks old) were anesthetized with intraperitoneal injection of ketamine and xylazine. The cremaster muscle was exteriorized and superfused with 37° C. bicarbonate-buffered saline throughout the experiment. Arteriolar wall injury was induced by laser ablation (Photonics Instruments) as previously described. Multiple thrombi were generated in at least 3 to 4 different arterioles of 1 mouse, with new thrombi formed upstream of earlier thrombi to minimize any contribution from thrombi generated earlier in the mouse. Platelets and fibrin were visualized by infusion of DyLight 649-conjugated anti-CD42c (0.2 μg/g body weight [BW]) and Alexa Fluor 488-conjugated anti-fibrin (0.2 μg/g BW) antibodies, respectively. To detect extracellular Ero1α, Alexa Fluor 488-conjugated rabbit IgG or nonblocking anti-ERO1α antibodies (0.3 μg/g BW) were injected into WT (C57BL/6), WT control, Ero1α KO, and Ero1α CKO mice. In some experiments, wtERO1α or activity-null ERO1α-Cys94Ser (mutant ERO1α [mERO1α]; 4 μg/g BW) was infused into Ero1α KO mice before imaging. To test the effect of ERO1α inhibitors or blocking anti-ERO1α antibodies, WT (C57BL/6) mice were treated with intravenous injection of vehicle control, eptifibatide (5 μg/g BW), B12-5 (5 μg/g BW), isotype control IgGs, anti-ERO1α (15E9, 1-3 μg/g BW), or anti-PDI (BD34, 3 μg/g BW) 3 minutes before treatment with the anti-CD42c and anti-fibrin antibodies. The same dose of eptifibatide was injected every 20 minutes to maintain the inhibitory effect. […] Fluorescence and bright-field images were captured in 6 to 10 different cremaster arterioles with a diameter of 30 to 45 μm in each mouse and recorded using either an Olympus BX61W microscope with a 60×1.0 salt water immersion objective or a Zeiss Axio Examiner Z1 microscope system with a Yokogawa confocal spinning disk (CSU-W1) equipped with 4 stack laser system (405-, 488-, 561-, and 637-nm wavelengths). Images were collected with a high-speed, high-resolution camera (2304×2304 pixel format; ORCA-Fusion BT sCMOS, Hamamatsu). Time 0 was set to when image capture began on each vessel. The data were analyzed using Slidebook (version 6.0; Intelligent Imaging Innovations). Due to the significant variation between vessels in the same mouse, the result from each vessel was counted as an individual value. Representative images were chosen that most closely resemble the mean values in the quantifications.

PDI, sequence (P07237 18-508, species assumed): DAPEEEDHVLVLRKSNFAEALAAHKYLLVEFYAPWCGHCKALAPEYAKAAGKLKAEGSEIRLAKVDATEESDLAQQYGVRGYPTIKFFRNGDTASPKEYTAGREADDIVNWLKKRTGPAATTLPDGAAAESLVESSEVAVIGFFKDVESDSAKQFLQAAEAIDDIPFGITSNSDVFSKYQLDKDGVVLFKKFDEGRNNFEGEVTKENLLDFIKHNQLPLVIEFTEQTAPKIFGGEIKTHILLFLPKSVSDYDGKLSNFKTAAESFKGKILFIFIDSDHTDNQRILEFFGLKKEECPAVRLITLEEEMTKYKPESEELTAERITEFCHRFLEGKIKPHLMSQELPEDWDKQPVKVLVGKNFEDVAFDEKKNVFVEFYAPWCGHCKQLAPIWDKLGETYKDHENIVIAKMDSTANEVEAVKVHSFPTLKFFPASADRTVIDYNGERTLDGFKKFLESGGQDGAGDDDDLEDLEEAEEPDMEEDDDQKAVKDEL

SMILES: O=C(CSc1nc(O)cc(O)n1)N1c2ccccc2Sc2ccccc21 [B12-5]
- PDI inhibition at 100 μM (%) (PDI; 100 μM): 8.2 ± 2%
- effect on PDI activity (PDI; at or up to 100 μM): minimal effect; also recorded: did not affect
- platelet thrombus formation (WT (C57BL/6) mice): significantly inhibited; also recorded: significantly reduced
- platelet thrombus formation (WT (C57BL/6) mice; listed as B112-5): inhibit
